Here are results for 6 molecules from US12629390B2, “Stabilized amorphous calcium carbonate for treatment of neurological, muscular and infertility diseases or conditions” (AMORPHICAL LTD., priority 2016, dated 2026).

Test [1] relates to healthy skeletal muscle cultures. Kind of test: myotube formation and contraction in healthy skeletal muscle cultures. The format is cell-based, rat. The conditions noted are these: added at 1 mM (final Ca2+ 2 mM). As for the experimental part:
Stationary skeletal muscle cultures were prepared from healthy 1 day new born rat (Sprague Dawley, Harlan, Israel). The muscle tissue was dissected from posterior legs and was thoroughly minced. Digestion was performed with Trypsin-EDTA while gentle trituration. After 30 min the supernatant, containing dissociated cells, was collected and a fresh Trypsin-EDTA was added. This procedure was repeated two more times. Then, all supernatants were pooled, centrifuged, and the cell pellet was re-suspended in Proliferation Medium. Cells were seeded in a Gelatin coated 12 wells culture plates, 1×10^5 cells/well containing 1 mL of Proliferation Medium. Two days later, the medium was changed to Fusion Medium, which was then changed twice a week. The cultures were monitored by daily phase contrast microscopic observations from 24 hours after setting the cultures and onward.
Stock solution of 1% porcine gelatin in water, was sterilized by autoclave. Once cooled, 500 μl of the solution were added to each well of the 12-wells culture plat. After incubation for 20 min at room temperature, the excess solution was removed, and the cells were seeded.
For the proliferation stage, cells were cultured in: DMEM/F12 (containing 1 mM Ca^2+) +10% FBS, 25 μg/mL Gentamycin, and 2 mM L-Glutamine.
For the fusion stage the Proliferation Medium was changed with Fusion Medium, which was prepared as following: DMEM/F12 (containing 1 mM Ca2+), 2% horse serum (HS), 2 mM L-Glutamine, 25 μg/mL Gentamycin, and 4 units/100 mL Insulin (all purchased from Biological-Industries, Israel).
Control cultures were grown without further added calcium, or cultures enriched with free (soluble) stabilizer. The experiment was blinded by marking the various calcium preparations with arbitrary numerals only.
The components were added in one of the following ways: (i) aqueous suspensions of dry material; (ii) aqueous suspension of fresh material (before drying), or (iii) dissolved with HCl (to mimic the acidity which exists in the stomach. After dissolving was accomplished, the formed solutions were neutralized with 1M NaOH).

For a further test, the system named is mdx mice. The test can be described thus: serum creatinine kinase (CK) levels in mdx mice given calcium supplements orally. In kind it is in vivo. The following applies: 12 weeks. The text has this: Experimental mice were administrated orally (by feeding or drinking) with control or test items. The control or test items were repeatedly administered daily until the study termination (after 12 weeks).
Animals were administrated with ACC by food or by drinking. Animals were administrated with CCC by food. Control was administrated by feeding. The control or test items were repeatedly administered daily until study termination.
At study termination blood sample was drawn from all animals under light anesthesia with Ketmaine/Xylazine, directly from the retro orbital sinus.
200 μl blood were collected into a yellow-cup tube with clotting activator gel. The tubes were kept at room temperature for at least 30 minutes for clotting and centrifuged at room temperature for 10 minutes at 4000 RPM. The serum samples are stored at 2-4° C. until delivered to CK analysis at A.M.L labs.

The test system of test [2] is spinal cord-dorsal root ganglia (SC-DRG) slices. Kind of test: nerve fiber sprouting from SC-DRG co-cultures. The format is cell-based, rat. The conditions noted are these: after 4 days of cultivation, portion of explants (out of 6). As for the experimental part: Neural and Vascular Reconstruction Gel ([…] Labs proprietary) is composed of two main components: high molecular hyaluronic acid (HA, 3×10^6 Da, BTG, Israel) and laminin (Sigma). […] The gel has the texture of a viscous liquid, it adheres easily and successfully the embedded cells or explants to the plastic or glass substratum, and enabled nerve fiber outgrowth in a 3D pattern. All the experiments were carried out and authorized by the local ethics committee recognized by the Israeli authorities for animal experimentation. Stationary organotypic cultures of dorsal root ganglia (DRG) and spinal cord (SC) as well as cultures of dissociated brain cells were prepared from rat fetuses (15 days of gestation, Lewis inbred, Harlan, Israel). Immediately after dissection, the isolated tissues were cut with a […] tissue chopper into small slices (of 400 μm thickness). In these studies, two tissue culture strategies were used. […] In the second method, the tissue slices were further dissociated with a trypsin-EDTA solution for 30 min, and washed with a culture medium. Subsequently, the dissociated cells were added to a suspension of chitosan powder or gastrolith powder (micro carriers, MCs) and incubated in suspension at 37° C. for 4 days. […] Calcium source were as following: ACC-Etidronic Acid (ACC-ET) (fresh suspension); ACC-Phosphoserine (ACC-PS) (fresh suspension); Gastrolith (dissolved with 0.1 M HCl and then neutralized with NaOH 1M); gastrolith powder; […] The cultures were monitored by daily phase contrast microscopic observations starting from 24 hours after setting the cultures onward. Suspensions of fresh ACC preparations consisted of particles forming a stable suspension. The gastrolith is a natural ACC isolated from crabs, and can be purchased only as a dry powder. In this form, its other characteristic components (such as calcium ions and proteins) are not available to the cells. In order to increase their bioavailability, the gastrolith powder was dissolved in 0.1 M HCl (which mimics the acidity which exists in the stomach) and then neutralized with 1M NaOH. […] The specimens were then incubated with rabbit anti-neurofilament antibodies (NF, Novus Biologicals, 1:500) to visualize the neurite outgrowth. […] Finally, the samples were rinsed again with wash buffer, and mounted with mounting medium (Immco Diagnostic, USA).

Another test has as its system mice embryos. Kind of test: in vitro embryo development in Quinn's Advantage cleavage media. The format is cell-based. As for the experimental part:
CBA male mice were bred with BL C57 female mice. The mice were kept on a 12 hours photoperiod schedule with unlimited water and food supply. About 6 to 8 weeks after receiving offspring, each female mouse was injected IP with 5IU of pregnant mare serum gonadotropin (PMSG).
After 48 hours each female mouse was injected IP with 5IU human chorionic gonadotropin (hCG). Male mice proven to be fertile were then put together with the superovulated females. The next morning the female mice were examined for the presence of copulatory plugs. Females that had copulatory plugs were euthanized after 24 hours (approximately 36 hours post-coitus) and embryos at 2 cell stage were retrieved from the oviducts as following: the oviducts were dissected in Quinn's Advantage cleavage media (SAGE, Origio, Denmark) and the embryos were transferred to 20 μL drops with Quinn's Advantage cleavage media (SAGE, Origio, Denmark) overlaid with mineral oil and cultured at 37.0° C. under 5% CO2 and atmospheric oxygen. The collected embryos continued to grow, i.e. in-vitro culture (IVC), until blastocyst/hatching stage. To test the effect of amorphous calcium carbonate, the Quinn's Advantage cleavage media (“cleavage media” hereinafter) was supplemented with different additives, i.e. amorphous calcium carbonate stabilized by polyphosphate (ACC-PP), crystalline calcium carbonate (CCC), polyphosphate (PP), phosphoserine (PS) or sodium carbonate ([…]). All supplements were added as a freshly prepared suspension; the preparation of the ACC supplements were performed under aseptic conditions. Untreated cleavage media (without addition of any additive) was used as a control (identified as Cont Q). The embryos were evaluated every day by microscope observation for a detection of the following stages: 2 cells, compactions stage, blastocysts formation and hatching stage. The fraction (in percent) of the embryos reached each stage was calculated (the number of 2 cells embryos was set as 100%).

A further test relates to sperm. The following applies: addition to calcium-free mediums; Bhoumik et al. 2014; cited from earlier work.
[3] abbreviates: Example 15, pooled embryos, 3.3 mM in cleavage media.
Setting [4] is: Example 17, mouse 1 sibling embryos, 1.7 mM in cleavage media.
Where [5] appears, read: Example 17, mice 3-6 pooled embryos, 1.7 mM in cleavage media.
Where [6] appears, read: Example 17, mouse 2 sibling embryos, 1.7 mM in cleavage media.
The mark [7] stands for this setting: Example 16, pooled embryos, 1.7 mM in cleavage media.
Setting [8] is: Example 13, mice 3-7 pooled embryos, 1.6 mM in cleavage media.
The mark [9] stands for this setting: Example 14, pooled embryos, 1.6 mM in cleavage media.

As to `O=C([O-])[O-].[Ca+2]` [CCC, crystalline calcium carbonate], in test [1], the “muscle fibers after 7 days” value was “fewer, thinner and shorter muscle fibers”. Also, the “early formation of many myotubes, time of cultivation” value in test [1] (dry powder suspended in water) is listed as “later”. Further, in the test with mdx mice (by food, diet with 1% elemental calcium (4M: synthetic ACC 5% PS; 3M: synthetic CCC)), the “elevation of CK compared to mdx group on normal diet only (2M)” value is listed as “not statistically significant”. In addition, the “creatinine kinase (CK) in serum” value in the test on mdx mice (group 3M: by food, diet with 1% elemental calcium) is 21,676±14,508 IU/ml. Also, in test [2] (calcium preparation at Ca2+ 2 mM), the “Cultures with axonal regeneration (%)” value is reported as 50%. In addition, in the test on mice embryos (setting [3]), the “8 cell/d2: number of embryos” value is reported as 3, the “Blast/d3: number of embryos” value came to 17, the “Blast/d3: portion of the initial number of embryos” value (shortened to “Blast/d3: portion”) was determined as 100% and the “Hatch/d4: number of embryos” value was 14. For the same molecule, in the test on mice embryos (setting [3]), the “Hatch/d4: portion of the initial number of embryos” value (shortened to “Hatch/d4: portion”) stood at 82.35% and the “comp/d2: number of embryos” value is 14. For the same molecule, in the test with mice embryos (setting [4]), the “8 cell/d2: number of embryos” value was determined as 14, the “Blast/d3: number of embryos” value is listed as 12, the “Blast/d4: number of embryos” value turned out to be 5 and the “Hatch/d4: number of embryos” value is 15. Moreover, in the test on mice embryos (setting [4]), the “Hatch/d4: portion” value turned out to be 62.5%, the “comp/d2: number of embryos” value is 6, the “degenerative: number of embryos” value was determined as 1 and the “early Blast/d3: number of embryos” value turned out to be 8.
As for `[Ca+2]` [Ca^2+ ions], the “increase of forward sperm motility” value with sperm was “up to 20%”.
Regarding `CC(O)(P(=O)(O)O)P(=O)(O)O` [ET, Etidronic Acid], in test [2] (stabilizer alone at 0.05%), the “Cultures with axonal regeneration (%)” value worked out at 33.3%.
Consider `O=C([O-])[O-].[Na+].[Na+]` [NaCO3, sodium carbonate], for which the “embryonic development compared to control or to the addition of ACC-PP” value in the test on mice embryos (Example 17, 1.7 mM in cleavage media) was “very poor embryonic development”. Also, in the test with mice embryos (setting [5]), the “8 cell/d2: number of embryos” value was determined as 2, the “Blast/d3: number of embryos” value stood at 0, the “Blast/d4: number of embryos” value is listed as 0 and the “Hatch/d4: number of embryos” value was 0 (0). In the test on mice embryos (setting [5]), the “Hatch/d4: portion” value is reported as 0 (0) %, the “comp/d2: number of embryos” value was found to be 7, the “degenerative: number of embryos” value was determined as 1 and the “early Blast/d3: number of embryos” value amounted to 0. In the test with mice embryos (setting [6]), the “8 cell/d2: number of embryos” value is 6, the “Blast/d3: number of embryos” value stood at 2, the “Blast/d4: number of embryos” value was 0 and the “Hatch/d4: number of embryos” value amounted to 2. Also, in the test on mice embryos (setting [6]), the “Hatch/d4: portion” value amounted to 12.5%, the “comp/d2: number of embryos” value came to 8, the “degenerative: number of embryos” value amounted to 2 and the “early Blast/d3: number of embryos” value is 14.
With `N[C@@H](COP(=O)(O)O)C(=O)O` [PS, phosphoserine], the “Cultures with axonal regeneration (%)” value in test [2] (stabilizer alone at 0.05%) is recorded as 0%. In the test with mice embryos (setting [7]), the “8 cell/d2: number of embryos” value amounted to 5, the “Blast/d3: number of embryos” value is 12, the “Blast/d3: portion” value is recorded as 92.3% and the “Hatch/d4: number of embryos” value is on record as 10. Further, in the test on mice embryos (setting [7]), the “Hatch/d4: portion” value was 76.9% and the “comp/d2: number of embryos” value was 8.
With polyphosphate [PP], in the test with mice embryos (setting [8]), the “8 cell/d2: number of embryos” value came out at 9, the “Blast/d3: number of embryos” value is 20, the “Blast/d3: portion” value amounted to 54.1% and the “Hatch/d4: number of embryos” value is given as 17. In the test on mice embryos (setting [8]), the “Hatch/d4: portion” value came to 45.9% and the “comp/d2: number of embryos” value was determined as 20. For the same molecule, in the test with mice embryos (setting [9]), the “8 cell/d2: number of embryos” value came out at 6, the “Blast/d3: number of embryos” value came out at 34, the “Blast/d3: portion” value came out at 94.44% and the “Hatch/d4: number of embryos” value came to 16. Besides, in the test with mice embryos (setting [9]), the “Hatch/d4: portion” value was 44.44% and the “comp/d2: number of embryos” value is listed as 30.
